Key:
[1] = system: Triton treated rats; test: Cholesterol lowering in Triton treated rats; assay type: in vivo, Charles Foster rats
Excerpt: The primary hypolipidemic effect of these compounds was established in triton induced hyperlipidemia in Charles Foster rats. […] The cholesterol lowering effect of some representative compounds of pregrenadienols and pregrenadienones as compared to clofibrate and gugulsterone in triton treated Charles Foster rats is described in Table-2.

[2] = system: normal rats; test: Hypolipidemic activity in normal rats; assay type: in vivo; conditions: 50 mg/kg
Description: In normal rats, 3β-hydroxypregna-5,16-dien-20one (2), at 50 mg/kg produced a significant lowering of serum cholesterol and triglycerides as describe in Table-3 below.

[3] = system: Human serum LDL; test: Cu2+ induced oxidation of low density lipoprotein (TBA reactive lipid peroxides); assay type: biochemical; conditions: for MDA (Exp.): 16 hr at 37° C., pH 7.4; for generation of LDL lipid peroxide (in words): tested concentrations
Description: Human serum LDL was oxidized with Cu^′2 in different concentrations of test compound in 0.05 mole PBS, pH 7.4 for 16 hr at 37° C. Thiobarbituric acid reactive lipid peroxides are measured by standard procedure. […] Cu^′2 induced oxidation in LDL lipids are mainly due to the free OH radical during incubation.

[4] = Hydroxy (OH) radical formation in nonenzymatic system (Fe2+, ascorbate, H2O2, deoxyribose); assay type: biochemical
[5] = system: glucose loaded rats; test: Hypoglycemic activity in glucose loaded rats; assay type: in vivo, albino rats (Charles Foster strain); conditions: for Blood Glucose Level: 100 mg/kg p.o. + glucose 2.0 g/kg; for % inhibition compared to control (blood glucose): 100 mg/kg
Description: The experiments were carried out with albino rats (Charles Foster strain) of either sex weighing 150-160 g. They were fed on laboratory diet prepared by M/s Lipton India Ltd. and maintained under 12 hr. light/dark cycle at 25±2° C.
The animals were divided into eight groups, each of six rats; group I was given 1% gum acacia (0.1 ml/100 g body weight) intragastrically (p.o.) and the group II were given 3β-hydroxypregna-5,16-dien-20-one (2) in 1% gum acacia. Animals of group III were given the standard antidiabetic drug, tolbutamide in the similar fashion. 2.0 g/kg glucose was given p.o. to all the rats along with the vehicle/Compound/Standard antidiabetic drug. Blood samples were taken from retroorbital plexus at periodic intervals. Glucose levels in the blood samples were measured by glucose oxidase method [Bergmeyer and Benut, 1963 cited in “Methods of Enzymatic Analysis” ed. H. Bergmeyer, Verlag Chemie, GmBH, Weinheim, Beroster, pp123, Academic press, New York].

[6] = system: streptozotocin induced diabetic rats; test: Hypoglycemic activity in streptozotocin induced hyperglycemic rats; assay type: in vivo; conditions: 100 mg/kg p.o.
Description: Hyperglycemia in rats was produced by streptozotocin treatment. The animals showing blood glucose levels between 250-350 mg/dl were selected. Blood samples were collected after treatment at intervals and blood glucose levels were estimated immediately.

[7] = system: cholesterol fed hyperlipidemic rats; test: Lipid peroxidation in cholesterol fed hyperlipidemic rats; assay type: in vivo
[8] = system: isoproterneol induced myocardial necrosis in rat; test: Isoproterneol induced myocardial necrosis in rats; assay type: in vivo; conditions: isoproterneol 85 mg/kg + drug 25 mg/kg p.o.
Excerpt: The underlying cause of myocardial infarction is believed to be the progressive deposition of lipids and fibrotic material into the arterial wall. These pregnadienols and pregnadienous also provided cardiac protection as assessed in isoproterneol induced myocardial necrosis in rat model, which produces myocardial infarction due to an increased blood pressure and heart rate.

[9] = Rattus norvegicus, ip, 50 mg/kg i.p., read-out: % Change S. Chol.

C/C=C1/C(=O)CC2C3CCC4=CC(=O)CC[C@]4(C)C3CC[C@]12C (stereo partly drawn) [Compound 9, Gugulsterone, reference compound]
change in vivo at 50 mg/kg [1, 9]: -44%

CC(=O)C1=CCC2C3CCC4=CC(=O)CC[C@]4(C)C3CC[C@]12C (stereo partly drawn) [Compound 3, 4,16-Dienpregna-3,20-dione]
change in vivo at 50 mg/kg [1, 9]: -13%

CC=C1C(OC(C)=O)C[C@H]2[C@@H]3CC=C4CC(OC(C)=O)CC[C@]4(C)[C@H]3CC[C@]12C (stereo partly drawn) [Compound 7, 5,17(20)-Dienpregna-3,16-diol-diacetate]
% Change S. Chol. ([1]; 50 mg/kg i.p.): −33%

CCOC(=O)C(C)(C)Oc1ccc(Cl)cc1 [Compound 10, Clofibrate, reference compound]
change in vivo at 200 mg/kg ([1]; Rattus norvegicus, ip, 200 mg/kg i.p., read-out: % Change S. Chol.): -15%
Serum Cholesterol ([2]; 0 Days): 82.3 ± 3.3 mg %
Serum Cholesterol ([2]; 30 Days): 53.2 ± 2.0 mg %
Serum Cholesterol % Fall ([2]; 30 Days): 36%
Serum Triglycerides ([2]; 30 Days): 47.3 ± 3.2 mg %
Serum Triglycerides % Fall compared to control ([2]; 30 Days): 28%

C/C=C1/C(O)CC2C3CC=C4CC(O)CC[C@]4(C)C3CC[C@]12C (stereo partly drawn) [Compound 8, 5,17(20)-Dienpregna-3,16-diol]
change in vivo at 50 mg/kg [1, 9]: -31%

Cc1c(C)c2c(c(C)c1O)CC[C@@](C)(CCC[C@H](C)CCC[C@H](C)CCCC(C)C)O2 [α-Tocopherol]
% inhibition of LDL oxidation ([3]; 0.25 μmol/ml): (3) %
MDA (Exp.) ([3]; 0.25 μmol/ml): 44.7 ± 4.5 n mol MDA/mg protein
% inhibition of LDL oxidation ([3]; 0.5 μmol/ml): (13) %
MDA (Exp.) ([3]; 0.5 μmol/ml): 41.6 ± 4.0 n mol MDA/mg protein
MDA (Exp.) ([3]; 1.0 μmol/ml): 35.0 ± 3.8 n mol MDA/mg protein
% inhibition of LDL oxidation ([3]; 2.0 μmol/ml): (51) %
MDA (Exp.) ([3]; 2.0 μmol/ml): 24.3 ± 2.0 n mol MDA/mg protein
generation of LDL lipid peroxide (in words) [3]: inhibit the generation of LDL lipid peroxide in concentration dependent manner
% inhibition of OH radical formation ([4]; 1 μmol/ml): (23) %
OH radical formation ([4]; 1 μmol/ml): 60.4 ± 7.0 nmol MDA/hr
% inhibition of OH radical formation ([4]; 2 μmol/ml): (42) %
OH radical formation ([4]; 2 μmol/ml): 45.2 ± 3.3 nmol MDA/hr
% inhibition of OH radical formation ([4]; 3 μmol/ml): (59) %
OH radical formation ([4]; 3 μmol/ml): 32.4 ± 3.5 nmol MDA/hr
% inhibition of OH radical formation ([4]; 4 μmol/ml): (65) %
OH radical formation ([4]; 4 μmol/ml): 27.1 ± 2.8 nmol MDA/hr
% inhibition of OH radical formation ([4]; 5 μmol/ml): (73) %
OH radical formation ([4]; 5 μmol/ml): 20.9 ± 2.0 nmol MDA/hr

CCCCNC(=O)NS(=O)(=O)c1ccc(C)cc1 [Tolbutamide, reference compound]
Maximum Blood Glucose Change ([5]; 100 mg/kg p.o. + glucose): −41.7%
Blood Glucose Level ([5]; 0 min): 38.15 ± 2.02 mg/dL
Blood Glucose Level ([5]; 30 min): 76.31 ± 6.29 mg/dL
Blood Glucose Level ([5]; 60 min): 27.26 ± 3.1 mg/dL
Blood Glucose Level ([5]; 90 min): 24.64 ± 1.92 mg/dL
Blood Glucose Level ([5]; 120 min): 23.07 ± 3.11 mg/dL
% inhibition compared to control (blood glucose) ([5]; 30 min): (35) %
% inhibition compared to control (blood glucose) ([5]; 60 min): (100) %
% inhibition compared to control (blood glucose) ([5]; 90 min): (100) %
% inhibition compared to control (blood glucose) ([5]; 120 min): (100) %
Blood Glucose Level ([6]; 0 hr): 292 ± 10 mg/dL
% lowering from zero hour value (blood glucose) ([6]; 1 hr): (25.3) %
% lowering from zero hour value (blood glucose) ([6]; 2 hr): (29.1) %
% lowering from zero hour value (blood glucose) ([6]; 3 hr): (30.8) %
% lowering from zero hour value (blood glucose) ([6]; 4 hr): (33.2) %
% lowering from zero hour value (blood glucose) ([6]; 5 hr): (37.3) %
% lowering from zero hour value (blood glucose) ([6]; 6 hr): (40.4) %
% lowering from zero hour value (blood glucose) ([6]; 7 hr): (34.2) %
% lowering from zero hour value (blood glucose) ([6]; 8 hr): (17.1) %
Blood Glucose Level ([6]; 24 hr): 332 ± 26 mg/dL

CC(O)C1=CCC2C3CC=C4CC(O)CC[C@]4(C)C3CC[C@]12C (stereo partly drawn) [Compound 6, 5,16-Dien-pregnane-3,20-diol]
change in vivo at 50 mg/kg [1, 9]: -10%

CC(=O)O[C@H]1CC[C@@]2(C)C(=CC[C@H]3[C@@H]4CC[C@H](C(C)=O)[C@@]4(C)CC[C@@H]32)C1 [Compound 4, 3β-Aceoxypregna-5-en-20-one]
% Change S. Chol. ([1]; 100 mg/kg i.p.): −12%

CC(=O)[C@H]1CC[C@H]2[C@@H]3CC=C4C[C@@H](O)CC[C@]4(C)[C@H]3CC[C@]12C [Compound 5, 3β-Hydroxypregna-5-en-20-one]
change in vivo at 100 mg/kg ([1]; Rattus norvegicus, ip, 100 mg/kg i.p., read-out: % Change S. Chol.): -9%

CC(=O)O[C@H]1CC[C@@]2(C)C(=CC[C@@H]3[C@@H]2CC[C@]2(C)C(C(C)=O)=CC[C@@H]32)C1 [Compound 1, 3β-Acetoxypregna-5,16-dien-20-one]
change in vivo at 50 mg/kg [1, 9]: -43%

Cc1ccc(C)c(OCCCC(C)(C)C(=O)O)c1 [Gemfibrozil, reference compound]
HDL lipid peroxides ([7]; cholesterol + drug 25 mg/kg): 134 ± 13 n mol MDA/dl
HDL lipid peroxides % reversal as compared with cholesterol fed rats ([7]; cholesterol + drug 25 mg/kg): (−3) %
LDL lipid peroxides ([7]; cholesterol + drug 25 mg/kg): 568 ± 62 n mol MDA/dl
LDL lipid peroxides % reversal as compared with cholesterol fed rats ([7]; cholesterol + drug 25 mg/kg): (−6) %
Liver lipid peroxides ([7]; cholesterol + drug 25 mg/kg): 253 ± 26 n mol MDA/g
Liver lipid peroxides % reversal as compared with cholesterol fed rats ([7]; cholesterol + drug 25 mg/kg): (−8) %
Serum lipid peroxides ([7]; cholesterol + drug 25 mg/kg): 1161 ± 74 n mol MDA/dl
Serum lipid peroxides % reversal as compared with cholesterol fed rats ([7]; cholesterol + drug 25 mg/kg): (−5) %
VLDL lipid peroxides ([7]; cholesterol + drug 25 mg/kg): 346 ± 10 n mol MDA/dl
VLDL lipid peroxides % reversal as compared with cholesterol fed rats ([7]; cholesterol + drug 25 mg/kg): (−9) %
lipid peroxide levels in serum VLDL, LDL and liver (in words) ([7]; cholesterol fed animals, simultaneous treatment): failed to protect
MDA (Exp.) ([3]; 2.5 μmol/ml): 53.0 ± 6.0 n mol MDA/mg protein
% inhibition of LDL oxidation ([3]; 5.0 μmol/ml): (5) %
MDA (Exp.) ([3]; 5.0 μmol/ml): 48.8 ± 6.7 n mol MDA/mg protein
MDA (Exp.) ([3]; 10.0 μmol/ml): 43.8 ± 4.9 n mol MDA/mg protein
% inhibition of LDL oxidation ([3]; 20 μmol/ml): (16) %
MDA (Exp.) ([3]; 20 μmol/ml): 41.4 ± 5.0 n mol MDA/mg protein
generation of LDL lipid peroxide (in words) [3]: did not inhibit
% inhibition of OH radical formation ([4]; 5 μmol/ml): (4) %
OH radical formation ([4]; 5 μmol/ml): 79.9 ± 6.8 nmol MDA/hr
% inhibition of OH radical formation ([4]; 10 μmol/ml): (5) %
OH radical formation ([4]; 10 μmol/ml): 78.5 ± 8.0 nmol MDA/hr
% inhibition of OH radical formation ([4]; 20 μmol/ml): (8) %
OH radical formation ([4]; 20 μmol/ml): 76.8 ± 7.4 nmol MDA/hr
% inhibition of OH radical formation ([4]; 30 μmol/ml): (8) %
OH radical formation ([4]; 30 μmol/ml): 76.4 ± 3.8 nmol MDA/hr
% inhibition of OH radical formation ([4]; 40 μmol/ml): (11) %
OH radical formation ([4]; 40 μmol/ml): 74.3 ± 6.3 nmol MDA/hr
% inhibition of OH radical formation ([4]; 50 μmol/ml): (13) %
OH radical formation ([4]; 50 μmol/ml): 72.4 ± 8.0 nmol MDA/hr
Heart Ca. - ATPase % Protection [8]: 30.2%
Heart Glycogen % Protection [8]: 32.1%
Heart Lipid peroxide % Protection [8]: 69.8%
Heart Phospholipase % Protection [8]: 28.2%
Serum Alkaline Phosphatase % Protection [8]: 41.2%
Serum CPK % Protection [8]: 33.9%
Serum GOT % Protection [8]: 24.9%
Serum GPT % Protection [8]: 33.4%
